Measurements reported in patent US20220146526A1, “METHOD FOR EVALUATING SAMPLE, ANALYSIS METHOD, METHOD FOR DETECTING DEGRADED SAMPLE, MARKER FOR DETECTING DEGRADED BLOOD PLASMA SAMPLE, AND MARKER FOR DETECTING DEGRADED SERUM SAMPLE” (SHIMADZU CORPORATION, priority 2019, published 2022).

Test: LC/MS of blood plasma sample: time from blood collection to centrifugation (Table D)
Format: physicochemical, human
Details: detection intensity, blood collection to centrifugation, after 12 hours vs 15 minutes
Description: (§1) At room temperature, 5 mL of blood from a healthy subject was taken into a blood-collecting vessel containing EDTA, and the blood-collecting vessel was inverted for mixing, then cooled, and allowed to stand at 4° C. Here, in order to investigate how the detection intensity of molecules contained in the sample was affected in a case where the time to cooling was set to 5 minutes or more as compared to that in a case where the time to cooling was set to 1 minute or less, preparations were performed under both the former condition and the latter condition. After standing, the blood sample was subjected to centrifugation under a condition of 4° C., 3000 rpm, and 15 minutes. […] After centrifugation, the blood-collecting vessel was left to stand at room temperature for 30 minutes, and the blood plasma was isolated during this 30 minutes. The obtained blood plasma sample was frozen and stored. Here, in order to investigate how the detection intensity of molecules contained in the sample was affected in cases where freezing and thawing was performed 4 times, 6 times, and 10 times after freezing as compared to that in a case where freezing and thawing was performed 2 times after freezing, freezing and thawing was performed under the respective conditions of 2, 4, 6, and 10 times.
(§2) Frozen blood plasma samples and serum samples were subjected to GC/MS or LC/MS. In GC/MS, the blood plasma samples and serum samples were subjected to methoxymation and trimethylsilylation and then introduced to GC-MS.
(§3) Analysis column: Discovery HS F5-3 (inner diameter of 2.1 mm, length of 150 mm, film thickness of 3 μm) (Sigma-Aldrich)
(§4) Column temperature: 40° C.
(§5) (A) 0.1% formic acid (dissolved in water)
(§6) (B) 0.1% formic acid (dissolved in acetonitrile)
(§7) Flow velocity: 0.25 mL/min
(§8) Ionization method: electrospray
(§9) Temperature: • Desolvation Line (DL) temperature: 250° C. • Heat block temperature: 400° C. • Interface temperature: 300° C.
(§10) Gas flow rate: • Nebulizer gas flow rate: 3.0 L/min • Drying gas flow rate: 10.0 L/min • Heating gas flow rate: 10.0 L/min
(§11) Mode: multiple reaction monitoring (MRM)
The rate of increase or decrease in Table D is the value of detection intensity relative to 1 that is the detection intensity in a case where the time from blood collection to centrifugation is set to 15 minutes.

| Compound | Increase or decrease |
| --- | --- |
| CN=C(NC)NCCC[C@H](N)C(=O)O [Symmetric dimethylarginine] | Different from individual |
| O=C(O)[C@@H]1CC(O)CN1 (stereo partly shown) [4-Hydroxyproline] | Different from individual |

Same assay, conditions: different from individual to individual, individuals with decrease, relative to 1 at 15 minutes, collection to centrifugation, after 12 hours

| Compound | Rate of increase or decrease (second value, decrease) |
| --- | --- |
| CN=C(NC)NCCC[C@H](N)C(=O)O [Symmetric dimethylarginine] | 0.68 |
| O=C(O)[C@@H]1CC(O)CN1 (stereo partly shown) [4-Hydroxyproline] | 0.69 |

Same assay, conditions: different from individual to individual, individuals with increase, relative to 1 at 15 minutes, collection to centrifugation, after 12 hours

| Compound | Rate of increase or decrease (first value, increase) |
| --- | --- |
| CN=C(NC)NCCC[C@H](N)C(=O)O [Symmetric dimethylarginine] | 1.78 |
| O=C(O)[C@@H]1CC(O)CN1 (stereo partly shown) [4-Hydroxyproline] | 1.33 |

Test: LC/MS of blood plasma sample: number of times of freezing and thawing (Table F)
Format: physicochemical, human
Details: detection intensity relative to 1 at 2 times, freezing and thawing 10 times
Description: as §1, §2, §3, §4, §5, §6, §7, §8, §9, §10, §11
The rate of increase or decrease in Table F is the value of detection intensity relative to 1 that is the detection intensity in a case where the number of times of freezing and thawing is set to 2 times.

| Compound | Rate of increase or decrease |
| --- | --- |
| N[C@@H](CCC(=O)O)C(=O)O [Glutamic acid] | 5.21 |
| NC(=O)CC[C@H](N)C(=O)O [Glutamine] | 1.34 |
| CN=C(NC)NCCC[C@H](N)C(=O)O [Symmetric dimethylarginine] | 1.31 |
| O=C(O)[C@@H]1CC(O)CN1 (stereo partly shown) [4-Hydroxyproline] | 1.34 |
| N[C@@H](CCS)C(=O)O [Homocysteine] | 1.37 |

Same assay, conditions: detection intensity, freezing and thawing 10 times vs 2 times

| Compound | Increase or decrease |
| --- | --- |
| N[C@@H](CCC(=O)O)C(=O)O [Glutamic acid] | Increase |
| NC(=O)CC[C@H](N)C(=O)O [Glutamine] | Increase |
| CN=C(NC)NCCC[C@H](N)C(=O)O [Symmetric dimethylarginine] | Increase |
| O=C(O)[C@@H]1CC(O)CN1 (stereo partly shown) [4-Hydroxyproline] | Increase |
| N[C@@H](CCS)C(=O)O [Homocysteine] | Increase |

Test: GC/MS of serum sample: time from blood collection to centrifugation (Table G)
Format: physicochemical, human
Details: detection intensity relative to 1 at 15 minutes, blood collection to centrifugation, after 12 hours
How it was run: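 Blood was held for varying times before centrifugation (room temperature, 3500 rpm, 5 min); serum was frozen, then methoxymated and trimethylsilylated for GC/MS with electron ionization in MRM mode. Values are detection intensities relative to the 15-minute collection-to-centrifugation condition, set as 1.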

| Compound | Rate of increase or decrease |
| --- | --- |
| O=C(O)[C@@H]1CC(O)CN1 (stereo partly shown) [4-Hydroxyproline] | 1.44 |

Same assay, conditions: detection intensity, blood collection to centrifugation, after 12 hours vs 15 minutes

| Compound | Increase or decrease |
| --- | --- |
| O=C(O)[C@@H]1CC(O)CN1 (stereo partly shown) [4-Hydroxyproline] | Increase |

Test: GC/MS of serum sample: time from centrifugation to isolation (Table H)
Format: physicochemical, human
Design: key to Rate of increase or decrease / Rate of increase or decrease (first value, increase): detection intensity relative to 1 at 30 min centrifugation-to-isolation
Details: detection intensity relative to 1 at 30 minutes, after 1 hour
How it was run: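 Blood was centrifuged at room temperature, 3500 rpm, 5 min, and the vessel left at room temperature for 30 min, 1 h or 6 h before serum isolation. Serum was methoxymated, trimethylsilylated and analysed by GC/MS with electron ionization in MRM mode; intensities expressed relative to the 30-min condition (=1).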

| Compound | Rate of increase or decrease |
| --- | --- |
| O=C(O)[C@@H]1CC(O)CN1 (stereo partly shown) [4-Hydroxyproline] | 1.33 |

Same assay, conditions: detection intensity, after 1 hour vs 30 minutes

| Compound | Increase or decrease |
| --- | --- |
| O=C(O)[C@@H]1CC(O)CN1 (stereo partly shown) [4-Hydroxyproline] | Increase |

Test: GC/MS of serum sample: number of times of freezing and thawing (Table I)
Format: physicochemical, human
Design: key to Rate of increase or decrease / Rate of increase or decrease (first value, increase): detection intensity relative to 2 freeze-thaw cycles = 1
Details: detection intensity relative to 1 at 2 times; serum, GC/MS; freezing and thawing 4 times
How it was run: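 Serum was isolated after centrifugation at room temperature (3500 rpm, 5 min), frozen, and put through 2, 4, 6 or 10 freeze–thaw cycles. Samples were methoxymated and trimethylsilylated, then run by electron-ionization GC/MS in MRM mode on a BPX5 column (60 to 330 °C). Detection intensity is given relative to the 2-cycle sample, set as 1.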

| Compound | Rate of increase or decrease |
| --- | --- |
| O=C(O)[C@@H]1CC(O)CN1 (stereo partly shown) [4-Hydroxyproline] | 1.40 |

Same assay, conditions: detection intensity; serum, GC/MS; freezing and thawing 4 times vs 2 times

| Compound | Increase or decrease |
| --- | --- |
| O=C(O)[C@@H]1CC(O)CN1 (stereo partly shown) [4-Hydroxyproline] | Increase |

Test: LC/MS of serum sample: time from blood collection to centrifugation (Table J)
Format: physicochemical, human
Details: after 4 hours from blood collection to centrifugation; detection intensity relative to 1 at 15 minutes
Description: (§12) After standing, the blood sample was subjected to centrifugation under a condition of room temperature, 3500 rpm, and 5 minutes. […] After centrifugation, the blood-collecting vessel was left to stand at room temperature, and the serum was isolated during this time. Here, in order to investigate how the detection intensity of molecules contained in the sample was affected in cases where the time during which the blood-collecting vessel was left at room temperature was set to 1 hour and 6 hours as compared to that in a case where the time was set to 30 minutes, preparations were performed under the respective conditions of 30 minutes, 1 hour, and 6 hours. The obtained serum sample was frozen and stored. Here, in order to investigate how the detection intensity of molecules contained in the sample was affected in cases where freezing and thawing was performed 4 times, 6 times, and 10 times after freezing as compared to that in a case where freezing and thawing was performed 2 times after freezing, freezing and thawing was performed under the respective conditions of 2, 4, 6, and 10 times.
as §2, §3, §4, §5, §6, §7, §8, §9, §10, §11
The rate of increase or decrease in Table J is the value of detection intensity relative to 1 that is the detection intensity in a case where the time from blood collection to centrifugation is set to 15 minutes.

| Compound | Rate of increase or decrease |
| --- | --- |
| N[C@@H](CCC(=O)O)C(=O)O [Glutamic acid] | 3.09 |

Same assay, conditions: after 6 hours from blood collection to centrifugation; detection intensity relative to 1 at 15 minutes

| Compound | Rate of increase or decrease |
| --- | --- |
| N[C@@H](CO)C(=O)O [Serine, serine] | 1.44 |

Same assay, conditions: serum sample, LC/MS; detection intensity vs 15 minutes from blood collection to centrifugation

| Compound | Increase or decrease |
| --- | --- |
| N[C@@H](CCC(=O)O)C(=O)O [Glutamic acid] | Increase |
| N[C@@H](CO)C(=O)O [Serine, serine] | Increase |

Same assay, conditions: serum sample, LC/MS; time from blood collection to centrifugation; detection intensity changed by 30% or more vs 15 minutes

| Compound | Time when compound is affected |
| --- | --- |
| N[C@@H](CCC(=O)O)C(=O)O [Glutamic acid] | After 4 hours |
| N[C@@H](CO)C(=O)O [Serine, serine] | After 6 hours |

Test: LC/MS of serum sample: number of times of freezing and thawing (Table M)
Format: physicochemical, human
Design: key to Rate of increase or decrease: detection intensity relative to 1 at 2 freeze-thaw cycles
Details: 6 times of freezing and thawing; detection intensity relative to 1 at 2 times
Description: as §12, §2, §3, §4, §5, §6, §7, §8, §9, §10, §11
The rate of increase or decrease in Table M is the value of detection intensity relative to 1 that is the detection intensity in a case where the number of times of freezing and thawing is set to 2 times.

| Compound | Rate of increase or decrease |
| --- | --- |
| N[C@@H](CO)C(=O)O [Serine, serine] | 0.66 |
| CN=C(NC)NCCC[C@H](N)C(=O)O [Symmetric dimethylarginine] | 0.55 |
| O=C(O)[C@@H]1CC(O)CN1 (stereo partly shown) [4-Hydroxyproline] | 0.66 |
| N[C@@H](CCS)C(=O)O [Homocysteine] | 1.30 |

Same assay, conditions: 10 times of freezing and thawing; detection intensity relative to 1 at 2 times

| Compound | Rate of increase or decrease |
| --- | --- |
| N[C@@H](CCC(=O)O)C(=O)O [Glutamic acid] | 0.63 |

Same assay, conditions: serum sample, LC/MS; detection intensity changed by 30% or more vs 2 times of freezing and thawing

| Compound | Number of times when compound is affected |
| --- | --- |
| N[C@@H](CCC(=O)O)C(=O)O [Glutamic acid] | 10 times |
| N[C@@H](CO)C(=O)O [Serine, serine] | 6 times |
| CN=C(NC)NCCC[C@H](N)C(=O)O [Symmetric dimethylarginine] | 6 times |
| O=C(O)[C@@H]1CC(O)CN1 (stereo partly shown) [4-Hydroxyproline] | 6 times |
| N[C@@H](CCS)C(=O)O [Homocysteine] | 6 times |

Same assay, conditions: serum sample, LC/MS; detection intensity vs 2 times of freezing and thawing

| Compound | Increase or decrease |
| --- | --- |
| N[C@@H](CCC(=O)O)C(=O)O [Glutamic acid] | Decrease |
| N[C@@H](CO)C(=O)O [Serine, serine] | Decrease |
| CN=C(NC)NCCC[C@H](N)C(=O)O [Symmetric dimethylarginine] | Decrease |
| O=C(O)[C@@H]1CC(O)CN1 (stereo partly shown) [4-Hydroxyproline] | Decrease |
| N[C@@H](CCS)C(=O)O [Homocysteine] | Decrease |
